From patent publication US3976672A, “(Hydrocarbylphenylsulfonyl)alkyltrimethylstannanes” (priority 1975, dated 1976)

Legend:
[1] = Hydrolysis in humid air (81% humidity chamber); assay type: physicochemical
Excerpt: A. The compound subjected to humid air was a typical Peterson compound, phenylsulfonylmethyltrimethylstannane, [formula] A 5 gal. jar was set on its side on a wooden support and contained a wire mesh screen to support samples in test over a mixture of 152 g of (NH4)2 SO4 in 168 g of H2 O. An excess of (NH4)2 SO4 in contact with a saturated aqueous solution of (NH4)2 SO4 gives 81% humidity in a closed space.^1 The following samples of this Peterson compound were weighted into 40 mm O.D. petri dishes (minus cover) of 8 mm depth and the dishes placed into the humidity chamber, and the chamber was then closed: No. 15 dish 0.2186 g; No. 34 dish 0.2006 g. Before the samples were removed from the balance, a solid crust began forming on the surface of the liquid and, inside of ten minutes, covered all of the liquid surface. An odor of a volatile trimethyltin compound was noted. When the samples were placed in the humidity chamber, the samples coated almost all of the surface area inside the dishes. The 5 gal. jar was set on the bench under normal laboratory lighting. The initial temperature inside the chamber was 24.5° C. Over 4 days, the temperature ranged from the initial temperature as a high to a low temperature of 18° C. The No. 15 sample was removed after 4 days. Under the surface crust, there was an oily solid. The sample was scraped with a spatula into a 2 dram sample vial. The oily solid remaining was washed into the vial with chloroform (about 0.5 to 1 ml). The chloroform was removed under a stream of nitrogen. The No. 34 sample was removed from the chamber after 7 days. The sample was completely solid and was scraped into a vial.
at 307 Hz and a broadened singlet flanked by satellites at 36.5 Hz for (CH3)3 Sn and a broadened singlet at 191 Hz for the OH.
B. A corresponding compound, closely related to the compounds of this invention, phenylsulfonylethyltrimethylstannane, [formula] was subjected to similar humidity conditions in the same equipment. […]

[2] = tested on: adult mites, Tetranychus urticae koch; assay: Mite one-day residual test, comparative (Table VII); assay type: in vivo; conditions: 3 days after loading mites, 85° F.
Method: Cotton in the second primary leaf stage, grown in twelve ounce cups under greenhouse conditions at 70°-75° F. was used in this test. One plant (two primary leaves) in one pot was used for each replicate and two replicates were used for each concentration of tin compound tested. Test formulations were prepared by dissolving 50 mg of tin compound in one ml of acetone, adding one drop of Emulfor 719, a commercial surface-activedispersing agent (polyoxyethylated vegetable oil) and suspended in 50 ml of water for concentration of 1000 ppm (parts per million). Aliquots of this solution were further diluted with distilled water to concentrations of 100, 20 and 5 ppm. The plants were sprayed with the formulations using a small spray atomizer to thoroughly drench the foliage. One day following treatment, a circle of tree tanglefoot was placed on the upper surfaces of the treated leaves and adult mites, Tetranychus urticae koch, were transferred into this confinement. Counts of these mites were made immediately following transfer and again six days later.
The mite one-day residual test differed as follows from that set forth in Example 9. The plants were held in a growth chamber maintained at 85° F., and were exposed to high intensity fluorescent lights for 14 hour days. The recorded observations were made 3 days after loading the mites.
(§1) The 3-day tobacco bud worm test on cotton differed as follows from that set forth in Example 10. The plants used were 3 weeks old, and were covered with cheesecloth during the test. Six replicates were used for each test compound, with 1 worm per plant. The plants were infested with larva 3 days after the spray application and the recorded observations were made 6 days after the spray application.

[3] = tested on: tobacco bud worm, Heliothis virescens (Fabricius); assay: 3-day tobacco bud worm test on cotton, comparative (Table VII); assay type: in vivo; conditions: 6 days after spray
Method: Tesst formulations were prepared by dissolving 50 mg of organotin compound of the invention in one ml of acetone, adding one drop of Emulfor 719, a commercial surface-active dispersing agent (polyoxyethylated vegetable oil) and suspending in 50 m1 of water for a concentration of 1000 ppm (parts per million). Aliquots of the solution were further diluted with distilled water to concentrations of 100, 20 and 5 ppm.
Cotton seedlings two weeks old were used. These were grown in 12 ounce cups with two plants in each cup. The diluted formulations were applied to the seedling plants with a spray atomizer and allowed to dry. Three cups were treated with each diluted formulation. A third instar larvae of the tobacco bud worm, Heliothis virescens (Fabricius). was placed in each cup and confined by inverting a perforated 16 oz. styrofoam cup over the top. Percent control of the worms and amount of feeding damage to the plants was determined after two weeks in the greenhouse.
as §1

[4] = cited from earlier work
[5] = tested on: yellow fever mosquito, Aedes aegypti (Linnaeus); assay type: in vivo; conditions: 1 PPM, 72 hours
Method: Formulations were prepared by dissolving 30 mg of organotin compound of the invention in 10 ml of acetone. This solution was then diluted to 1 ppm with water. Two 25-ml aliquots were placed in test tubes to which were added 10 to 25 fourth instar larvae of the yellow fever mosquito, Aedes aegypti (Linnaeus). The tubes were held in darkness for 72 hours. At the end of this period the percent control was determined.

[6] = tested on: cotton boll weevils, Anthonomous grandis Boheman; assay: Cotton Boll Weevil Test; assay type: in vivo; conditions: for % Control Cotton Boll Weevil: 1000 PPM, cotton seedlings, five days, Abbott-corrected, 7200 min; for Boll Weevil % Feeding Reduced on Cotton: 1000 ppm, visual comparison of feeding damage
Method: Formulations were prepared at 1000 ppm as in B, the Aphid Contact Test, above. Cotton seedlings 12 to 14 days old grown in 12 oz cups were used. Two pots were treated with each formulation by spraying with a spray atomizer while rotating the pots on a turntable. Five adult cotton boll weevils, Anthonomous grandis Boheman, were placed in each pot following treatment and were caged by covering the pots with an inverted 16 oz styrofoam cup with small perforations punched in the bottom. The surviving weevils were counted after five days in the greenhouse to determine the percent control, corrected for any natural mortality in the control plants by Abbott's formula. The percent reduction in feeding was estimated by visual comparison of the feeding damage to the treated plants with the control (untreated) plants.
(§2) F. Abbott's Formula: [formula]

[7] = tested on: tobacco bud worm, Heliothis virescens (Fabricius); assay: Tobacco Bud Worm Diet Test; assay type: in vivo; conditions: 1000 PPM, one week, Abbott-adjusted, 10080 min
Method: Test formulations were prepared at 1000 ppm as in B, the Aphid Contact Test, above. Two-tenths ml of the diluted formulations was pipetted onto the surface of 5 grams of a synthetic diet mixture held in partially filled cells of a plastic jelly tray. Five cells were treated with each chemical dilution. The diet mixture was a modified Vanderzant diet consisting of wheat germ, soy flour, agar, sugar, salts, vitamins, preservatives and water. The jelly trays had fifty cavities per sheet, each cavity being approximately 2.5 × 4.0 × 1.5 cm.
Following treatment, a third or early fourth instar larva of the tobacco bud worm, Heliothis virescens (Fabricius), was placed in each cell. The trays were then covered with a plastic film plus a sheet of rigid plastic and were held in an incubator at 80° F.
At the end of one week, the trays were examined and the percent control was determined, adjusted for any natural mortality in the controls by Abbott's formula. The trays were held an additional week and any abnormalities in the development of the survivors was noted.
as §2

[8] = tested on: corn leaf aphids Rhopalosiphum maidis (Fitch); assay: Aphid Contact Test; assay type: in vivo; conditions: 1000 PPM spray, barley, 5 days
Method: Test formulations were prepared for spraying at 1000 ppm (parts per million) concentration by dissolving them in a small amount of acetone and adding a suitable wetting agent. Typically, […] of organotin compound was dissolved (or suspended) in 10 ml of acetone, 2 drops of Triton-X100 wetting agent (octylphenoxy polyethoxy ethanol with 9-10 mole percent of polyethylene oxide) were added and this was suspended in 300 ml of water make a 6000 ppm suspension. An aliquot was then further diluted with distilled water to 1000 ppm concentration of organotin compound.
Eight to ten day old barley seedlings, grown ten plants each in a 12 oz. cup, were infested with corn leaf aphids Rhopalosiphum maidis (Fitch), two days prior to treatment. Two pots were treated with each formulation by spraying with a spray atomizer while the plants were rotating on a turntable. Following treatment, the plants were held for 5 days in the greenhouse. At the end of this period, the percent control of the aphids was estimated based on the reduction of the population density as compared to untreated plants used as controls.

[9] = tested on: adult mites, urticae Koch; assay: Mite One-Day Residual Test (Example 8); assay type: in vivo; conditions: 500 PPM, cotton, six days after infestation; 8640 min
Method: Test compounds were prepared as in B, the Aphid Contact Test, above but were further diluted to 500 ppm with water.
Cotton, in the second primary leaf stage grown in twelve ounce cups under greenhouse conditions at 70°-75° F., was used in the test.
one plant (two primary leaves) in one pot was used for each replicate; two replicates were used for each concentration of organotin compound tested.
The plants were sprayed with the dispersions using a small spray atomizer to throughly drench the foliage.
One day following treatment, a circle of tree tanglefoot was placed on the upper surface of the treated leaves and adult mites, urticae Koch, were transferred into this confinement.
Six days following infestation with mites, the plants were examined for adult live mites remaining on the leaves. On an estimation basis in comparison with the number of living mites on the control plants, the percent control was determined.

[10] = Thermal stability on distillation; assay type: physicochemical; conditions: at the temperature required to distill the starting sulfone
Method: The pot residue, a black brittle glass when cooled, weighed 16.2 g. The cuts were analyzed by (glpc) gas-liquid phase chromatography using a 6 feet × 1/8 inch column packed with 10% of silicone gum rubber on silanized diatomaceous earth at a column temperature of 260° C. […] There also was a more volatile component which increased in amount in each successive cut. The latter observation accompanied by a gradual loss in vacuum is usually associated with some thermal decomposition. Cuts No. 2 and No. 3 were combined for a second distillation using a vacuum jacketed vigreaux column. One cut was obtained, b.p. 43°-125° C. […] The vigreaux column was replaced by a short-path head and a third distillation was run on the pot residue. The following cuts were taken:
A sample of Cut No. 1 was analyzed by nuclear magnetic resonance spectroscopy (NMR). […] In summary, the product could only be obtained as a mixture with the starting sulfone despite three distillation attempts to separate the mixture.

Row | Compound | % Control Mosquito Larvae [5] [%] | % Control Cotton Boll Weevil [6] [%] | Boll Weevil % Feeding Reduced on Cotton [6] [%] | % Control Tobacco Bud Worm [7] [%] | % Control Aphids [8] [%] | % Control Mite One-Day Residual [9] [%] | further results
1 | [CH3][Sn]([CH3])([CH3])[CH2]CS(=O)(=O)c1ccccc1 [trimethylphenylsulfonylethylstannane, phenylsulfonylethyltrimethylstannane] | – | – | – | – | – | – | hydrolysis in humid air (infrared, NMR) ([1]; 81% humidity, 27° C./room temperature, 4 days and 2 weeks): not subject to hydrolysis under the stated conditions
2 | C[CH](S(=O)(=O)c1ccc(C(C)(C)C)cc1)[Sn]([CH3])([CH3])[CH3] (stereo not drawn) [1-[p-t-butylphenylsulfonyl]ethyltrimethylstannane] | – | – | – | – | – | – | hydrolysis deficiencies ([1]; comparison with the Peterson compound): suffers from the same hydrolysis deficiencies as does the Peterson compound
3 | [CH3][Sn]([CH3])([CH3])[OH] [trimethyltin hydroxide] | – | – | – | – | – | – | Mite One-Day Residual % Control ([2]; 0.15 millimoles/liter): 7%; Mite One-Day Residual % Control ([2]; 0.3 millimoles/liter): 34%; Mite One-Day Residual % Control ([2]; 0.6 millimoles/liter): 9%; Tobacco Bud Worm % Control ([3]; 0.15 millimoles/liter): 16%; Tobacco Bud Worm % Feeding Reduced ([3]; 0.15 millimoles/liter): 50%; Tobacco Bud Worm % Control ([3]; 0.3 millimoles/liter): 16%; Tobacco Bud Worm % Feeding Reduced ([3]; 0.3 millimoles/liter): 69%; Tobacco Bud Worm % Control ([3]; 0.6 millimoles/liter): 66%; Tobacco Bud Worm % Feeding Reduced ([3]; 0.6 millimoles/liter): 81%
4 | CCC[CH2][Sn]([CH2]CCC)([CH2]CCC)[CH2]S(=O)(=O)c1ccccc1 [[(Phenylsulfonyl)methyl]tributyltin] | – | – | – | – | – | – | reactivity toward carbon dioxide and oxygen ([4]; room temperature): unreactive toward carbon dioxide and oxygen at room temperature; decomposition to phenyl methyl sulfone and tributyltin oxide on exposure of a thin layer to air ([4]; within four days, 5760 min): ca. 50%
5 | 2-(p-dodecylphenylsulfonyl)ethyltrimethylstannane [Compound 11] | 100 | 100 | 50 | 100 | 90 | 100 | –
6 | Trimethyltin p-toluenesulfinate | 0 | 100 | 100 | 100 | 98 | 100 | –
7 | [CH3][Sn]([CH3])([CH3])[CH2]S(=O)(=O)c1ccccc1 [trimethylphenylsulfonylmethylstannane, phenylsulfonylmethyltrimethylstannane] | – | – | – | – | – | – | hydrolysis in humid air (NMR) ([1]; 81% humidity, 18-24.5° C., 4 days and 7 days): no unreacted starting Peterson compound
8 | 2-Thioacetoxyethyltri-n-butyltin | 55 | 40 | 90 | 20 | 95 | 80 | –
9 | CC(C)(C)c1ccc(S(=O)(=O)[CH2][Sn]([CH3])([CH3])[CH3])cc1 [4-t-butylphenylsulfonylmethyltrimethylstannane] | – | – | – | – | – | – | thermal instability [10]: thermal instability of the product at the temperature required to distill the starting sulfone
